Read-outs that look alike come from different tables or passages of the source.
Assays:
CDK19/Cyclin C = CDK19/Cyclin C (Homo sapiens (Human), UniProt Q9BWU1); assay: CDK19/Cyclin C binding assay (LanthaScreen Eu-Kinase Binding Assay); conditions: read-out: CDK19-CYCC IC50
Method in brief: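 LanthaScreen TR-FRET tracer-displacement format with 2 nM Cdk19-Cyclin C, 20 nM tracer and 2 nM Eu-anti-GST antibody. The buffer was 50 mM HEPES pH 7.5, 10 mM MgCl2, 1 mM EGTA, 0.01% Brij-35, with 1% DMSO final. Compounds were tested as 1:3 serial dilutions and incubated for 60 min at 25 °C.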

Molm13 = assay: In vitro cell proliferation assay (CellTiter-Glo), Molm13; assay type: cell-based; conditions: Homo sapiens, MOLM-13, growth inhibition, read-out: GI50 Molm13
intracellular HASPIN = intracellular HASPIN (Homo sapiens (Human), UniProt Q8TF76); assay: Endogenous phosphoH3 inhibition in SW620 cells growing in 10% FBS; assay type: cell-based; conditions: read-out: SW620 pH3(T3)
Method: Endogenous phosphoH3 inhibition can be screened in cells growing in 10% FBS. Cells are plated as described before and treated for 8 h with compounds as described before. Then cells are lysated and phospho H3 evaluated as described before. The percentage of phosphorylated H3 vs total H3 in cells treated with DMSO is taken as hundred percent of phosphorylation. The percentage of H3 phosphorylation is finally plotted against concentration for each compound and EC50s for intracellular HASPIN inhibition are calculated using ActivityBase from IDBS.

SW620 cells = assay: Cell cycle assay (propidium iodine, flow cytometry); assay type: cell-based, human; conditions: SW620, 24 h, increasing concentrations
Method: Compounds can be screened for their ability to affect the cell cycle using a propidium iodine assay and analysis by flow cytometry. SW620 are plated at 500000 cells per well in 6-well plates (Solmeglas 13118) in RPMI media (Sigma-Aldrich R6504) supplemented with 10% foetal bovine serum (Sigma-Aldrich F7524), Penicillin/Streptomycin solution diluted 1:100 (Gibco 15070-063), and fungizone (Gibco, 15290-018), and allowed to adhere overnight at 37° C. in 5% CO2. Cells are then treated 24 h hours with compounds at final concentration of 5, 2.5, 1 and 0.5 μM. Cells are collected by trypsinization and centrifugation at 1250 rpm and washed with PBS (Sigma Ref. D8537). Cells are fixated with 70% cold ethanol (Merck Ref 100983)) and kept at 4° C. at least for 12 hours. After centrifugation, cells are washed with PBS and DNA is stained with a solution of 0.2 mg/mL RNAase (Quiagen Ref 1007885) and 0.02 mg/mL propidium iodine (Sigma Ref P4864). After 30 minutes incubation at room temperature in the dark cells are analyzed by FACSCalibur™ (BD biosciences) and Flowjo software.

panel of 468 kinases = assay: KINOMEscan kinase panel selectivity score; assay type: binding
Source text: Compounds of the invention may have the advantage that they are effective inhibitors of protein kinases (e.g. CDK8 and/or haspin). […] For instance, the compounds of the invention may be selective inhibitors of certain protein or lipid kinases. […] Compounds that are selective inhibitors may be identified by screening in a 453-468 kinases panel (KINOMEscan™ from DiscoveRx). For example, selective inhibitors may show a selectivity score of S(20)<0.05.
Selectivity Score (or S-score) is a quantitative measure of a compound's selectivity. It is calculated by dividing the number of kinases to which a compound binds by the total number of distinct kinases tested (i.e. S=Number of hits/Number of assays).

Chain of CDK19/Cyclin C (Q9BWU1 whole entry): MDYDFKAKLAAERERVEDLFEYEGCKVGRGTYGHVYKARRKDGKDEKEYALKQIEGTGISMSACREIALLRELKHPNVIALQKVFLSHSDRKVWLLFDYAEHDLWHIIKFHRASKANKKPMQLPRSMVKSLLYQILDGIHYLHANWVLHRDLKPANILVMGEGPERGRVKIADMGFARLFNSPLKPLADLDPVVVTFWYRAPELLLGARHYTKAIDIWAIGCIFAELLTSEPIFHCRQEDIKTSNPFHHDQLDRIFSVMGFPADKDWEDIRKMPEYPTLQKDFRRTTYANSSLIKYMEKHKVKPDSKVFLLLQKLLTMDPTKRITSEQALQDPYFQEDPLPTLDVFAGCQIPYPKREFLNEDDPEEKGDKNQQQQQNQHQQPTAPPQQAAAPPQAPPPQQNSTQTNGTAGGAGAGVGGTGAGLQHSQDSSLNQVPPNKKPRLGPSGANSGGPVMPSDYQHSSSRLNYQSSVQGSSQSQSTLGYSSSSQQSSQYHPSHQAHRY
Chain of CDK19/Cyclin C (P24863 whole entry partner): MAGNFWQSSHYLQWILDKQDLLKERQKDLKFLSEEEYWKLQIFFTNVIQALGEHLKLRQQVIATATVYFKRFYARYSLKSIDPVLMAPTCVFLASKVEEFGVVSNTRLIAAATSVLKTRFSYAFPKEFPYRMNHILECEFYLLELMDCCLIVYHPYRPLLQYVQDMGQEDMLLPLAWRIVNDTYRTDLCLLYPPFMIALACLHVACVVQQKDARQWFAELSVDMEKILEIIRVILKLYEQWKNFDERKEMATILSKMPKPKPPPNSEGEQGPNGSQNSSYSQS
Chain of intracellular HASPIN (Q8TF76 whole entry): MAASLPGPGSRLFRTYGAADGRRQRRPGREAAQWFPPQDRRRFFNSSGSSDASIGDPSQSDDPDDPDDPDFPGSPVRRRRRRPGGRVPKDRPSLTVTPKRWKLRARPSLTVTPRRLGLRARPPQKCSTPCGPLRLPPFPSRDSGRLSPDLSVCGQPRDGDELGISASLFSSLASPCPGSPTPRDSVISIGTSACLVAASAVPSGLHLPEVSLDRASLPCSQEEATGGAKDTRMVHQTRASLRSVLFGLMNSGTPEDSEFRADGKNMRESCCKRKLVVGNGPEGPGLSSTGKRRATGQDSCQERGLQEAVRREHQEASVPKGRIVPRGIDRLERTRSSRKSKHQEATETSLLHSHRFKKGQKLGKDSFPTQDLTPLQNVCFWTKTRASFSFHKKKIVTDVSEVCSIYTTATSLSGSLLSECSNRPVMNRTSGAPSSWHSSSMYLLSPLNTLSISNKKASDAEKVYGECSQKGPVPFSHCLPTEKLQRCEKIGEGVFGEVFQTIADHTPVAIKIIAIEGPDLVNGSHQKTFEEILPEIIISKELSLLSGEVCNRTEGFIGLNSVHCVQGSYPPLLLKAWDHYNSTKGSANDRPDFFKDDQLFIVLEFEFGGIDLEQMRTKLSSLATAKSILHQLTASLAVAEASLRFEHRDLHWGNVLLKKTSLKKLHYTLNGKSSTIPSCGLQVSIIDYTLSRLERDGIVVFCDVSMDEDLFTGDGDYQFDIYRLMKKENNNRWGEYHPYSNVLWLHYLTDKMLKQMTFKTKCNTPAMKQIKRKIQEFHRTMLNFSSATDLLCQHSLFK

NC(=O)c1cc2c([nH]1)-c1ccncc1O[C@H]2C1CCOCC1 (single isomer, unassigned) [Example 72]
IC50 (CDK19/Cyclin C): 14.2 nM
GI50 (Molm13; semiquantitative): 1000 to 10000 nM

CCn1c(C(N)=O)cc2c1-c1ccncc1OC2(C)C [Example 43]
EC50 (intracellular HASPIN; quantitative): 1.6 nM
IC50 (CDK19/Cyclin C): 1.09 nM
effect on cell cycle (SW620 cells): induced G2M arrest and apoptosis
GI50 (Molm13; quantitative): 349 nM
Selectivity score S(20) (panel of 468 kinases): 0.038

CC1(C)Oc2cnccc2-c2c1cc(C(N)=O)n2CCF [Example 52]
EC50 (intracellular HASPIN; semiquantitative): < 500 nM
IC50 (CDK19/Cyclin C): 1.41 nM
GI50 (Molm13; semiquantitative): < 1000 nM

CCn1c(C(N)=O)c(-c2ccccc2OC)c2c1-c1ccncc1OC2(C)C [Example 68]
EC50 (intracellular HASPIN; semiquantitative): < 500 nM
IC50 (CDK19/Cyclin C): 16.4 nM
GI50 (Molm13; semiquantitative): < 1000 nM
